The record followed here is ChEMBL document CHEMBL5465560, “Selectivity Literature for EUbOPEN Chemogenomic Library” (2024).

Experiment [1] deals with Ephrin type-A receptor 4 (Homo sapiens, UniProt P54764). As to conditions: at 10 µM.
Experiment [2] addresses Cyclin-dependent kinase 2 (Homo sapiens, UniProt P24941). As to the kind of experiment: Selectivity interaction (Kinase panel (DSF assay)) EUB0001558a CDK2. Background: DSF heats the sample and reads unfolding from a dye or from intrinsic fluorescence.
For experiment [3], the target named is Insulin receptor (Homo sapiens, UniProt P06213). As to conditions: at 3 µM.
For experiment [4], the target named is T1, Serine/threonine-protein kinase ULK1 (Homo sapiens) (UniProt O75385).
T1 sequence (whole entry): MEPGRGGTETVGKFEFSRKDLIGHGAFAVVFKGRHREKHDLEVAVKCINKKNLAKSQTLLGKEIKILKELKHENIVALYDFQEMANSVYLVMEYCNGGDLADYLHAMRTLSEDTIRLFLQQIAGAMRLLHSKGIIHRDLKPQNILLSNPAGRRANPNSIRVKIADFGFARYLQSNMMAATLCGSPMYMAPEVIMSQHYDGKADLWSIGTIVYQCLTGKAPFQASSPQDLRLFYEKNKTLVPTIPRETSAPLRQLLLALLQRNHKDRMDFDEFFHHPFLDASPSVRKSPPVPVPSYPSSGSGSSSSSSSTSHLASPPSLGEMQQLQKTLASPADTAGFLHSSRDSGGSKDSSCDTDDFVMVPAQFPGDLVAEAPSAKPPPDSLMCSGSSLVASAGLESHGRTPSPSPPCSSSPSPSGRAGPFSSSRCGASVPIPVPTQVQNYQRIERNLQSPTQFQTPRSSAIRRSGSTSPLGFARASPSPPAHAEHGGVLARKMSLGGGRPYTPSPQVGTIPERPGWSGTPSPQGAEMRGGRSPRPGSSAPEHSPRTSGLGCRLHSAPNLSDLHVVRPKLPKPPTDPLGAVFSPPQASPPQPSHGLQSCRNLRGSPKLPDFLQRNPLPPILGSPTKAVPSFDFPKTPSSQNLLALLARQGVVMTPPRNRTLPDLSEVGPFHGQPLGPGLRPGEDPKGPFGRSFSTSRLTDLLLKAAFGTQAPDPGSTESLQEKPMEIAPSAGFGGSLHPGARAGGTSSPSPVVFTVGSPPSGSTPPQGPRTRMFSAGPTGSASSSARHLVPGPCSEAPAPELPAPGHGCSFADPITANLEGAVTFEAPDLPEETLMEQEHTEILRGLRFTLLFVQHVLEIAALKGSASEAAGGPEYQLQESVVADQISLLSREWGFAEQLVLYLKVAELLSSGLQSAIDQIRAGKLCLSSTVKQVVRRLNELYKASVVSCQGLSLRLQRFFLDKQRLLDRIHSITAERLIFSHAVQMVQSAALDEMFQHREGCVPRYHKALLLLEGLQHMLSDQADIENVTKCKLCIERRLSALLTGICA
As to the kind of experiment: Selectivity interaction (KinomeScan (DiscoverX)) EUB0001079a ULK1. As to conditions: at 1 µM.

Experiment [5] has as its target Casein kinase I isoform alpha (Homo sapiens, UniProt P48729). The experiment in a line: Selectivity interaction (KinomeScan (DiscoverX)) EUB0000666a CSNK1A1. To be noted: at 10 µM.
The target in experiment [6] is Receptor tyrosine-protein kinase erbB-3 (Homo sapiens) (UniProt P21860). As to the kind of experiment: Selectivity interaction (KinomeScan (DiscoverX)) EUB0000666a ERBB3. To be noted: at 10 µM.
Experiment [7] concerns the target Serine/threonine-protein kinase MRCK gamma (Homo sapiens) (UniProt Q6DT37). As to the kind of experiment: Selectivity interaction (Kinase panel (Z-LYTE Assay)) EUB0001632a CDC42BPG. To be noted: at 10 µM.
Experiment [8] deals with T2, Interleukin-1 receptor-associated kinase 3 (Homo sapiens) (UniProt Q9Y616).
T2 sequence (whole entry): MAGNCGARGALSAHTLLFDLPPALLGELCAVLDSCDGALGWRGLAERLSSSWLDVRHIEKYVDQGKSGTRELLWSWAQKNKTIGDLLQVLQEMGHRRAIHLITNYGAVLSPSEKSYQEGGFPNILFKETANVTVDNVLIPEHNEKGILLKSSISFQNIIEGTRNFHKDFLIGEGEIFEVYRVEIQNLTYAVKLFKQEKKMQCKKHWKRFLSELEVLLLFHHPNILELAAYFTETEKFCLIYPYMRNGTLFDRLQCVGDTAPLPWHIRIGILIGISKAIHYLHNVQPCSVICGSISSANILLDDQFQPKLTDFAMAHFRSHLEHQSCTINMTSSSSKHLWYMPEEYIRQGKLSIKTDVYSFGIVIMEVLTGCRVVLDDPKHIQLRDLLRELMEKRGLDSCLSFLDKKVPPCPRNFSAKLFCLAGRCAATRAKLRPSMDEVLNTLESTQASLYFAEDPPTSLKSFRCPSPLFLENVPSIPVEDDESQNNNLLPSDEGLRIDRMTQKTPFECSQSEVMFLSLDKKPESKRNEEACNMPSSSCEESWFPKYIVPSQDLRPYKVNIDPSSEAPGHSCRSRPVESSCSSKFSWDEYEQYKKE
The experiment in a line: Selectivity interaction (LanthaScreen Eu Kinase Binding Assay) EUB0001632a IRAK3. To be noted: at 10 µM. A general note: TR-FRET usually uses a lanthanide donor and a delayed reading to cut background.

Experiment [9] deals with T3, Dual specificity mitogen-activated protein kinase kinase 4 (Homo sapiens) (UniProt P45985).
T3 sequence (whole entry): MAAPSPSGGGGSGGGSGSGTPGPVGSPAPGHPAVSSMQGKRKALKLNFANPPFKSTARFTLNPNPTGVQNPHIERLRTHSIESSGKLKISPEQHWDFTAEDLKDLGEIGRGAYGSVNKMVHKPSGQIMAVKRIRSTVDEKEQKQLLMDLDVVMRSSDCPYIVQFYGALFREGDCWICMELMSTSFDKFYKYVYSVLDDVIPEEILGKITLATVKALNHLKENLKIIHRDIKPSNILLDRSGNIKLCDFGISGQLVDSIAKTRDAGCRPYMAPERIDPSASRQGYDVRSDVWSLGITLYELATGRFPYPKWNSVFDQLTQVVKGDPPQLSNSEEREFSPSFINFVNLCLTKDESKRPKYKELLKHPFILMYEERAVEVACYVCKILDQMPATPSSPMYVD
As to the kind of experiment: Selectivity interaction (LanthaScreen Eu Kinase Binding Assay) EUB0001632a MAP2K4. To be noted: at 10 µM.

Experiment [10] addresses Serine/threonine-protein kinase PAK 3 (Homo sapiens) (UniProt O75914). The experiment in a line: Selectivity interaction (KinomeScan (DiscoverX)) EUB0000607a PAK3. As to conditions: at 10 µM.
Experiment [11] deals with Serine/threonine-protein kinase 16 (Homo sapiens, UniProt O75716). As to the kind of experiment: Selectivity interaction (ActivX KiNativ screen (kinase selectivity in THP-1 cell lysates)) EUB0000639a STK16. The format is subcellular. To be noted: lysate, at 0.04 µM.
Experiment [12] addresses Mitogen-activated protein kinase 11 (Homo sapiens) (UniProt Q15759). As to the kind of experiment: Selectivity interaction (KinomeScan (DiscoverX)) EUB0000229b MAPK11. As to conditions: at 10 µM.
Experiment [13] has as its target cAMP-dependent protein kinase catalytic subunit alpha (Homo sapiens, UniProt P17612). The experiment in a line: Selectivity interaction (KinomeScan (DiscoverX)) EUB0000229b PRKACA. To be noted: at 10 µM.
Experiment [14] deals with SRSF protein kinase 2 (Homo sapiens) (UniProt P78362). As to the kind of experiment: Selectivity interaction (KinomeScan (DiscoverX)) EUB0000595a SRPK2. As to conditions: at 10 µM.
For experiment [15], the target named is Ribosomal protein S6 kinase alpha-2 (Homo sapiens) (UniProt Q15349). As to the kind of experiment: Selectivity interaction (KinomeScan (DiscoverX)) EUB0000618a RPS6KA2. As to conditions: at 10 µM.

Chain of Serine/threonine-protein kinase PAK 3 (Homo sapiens) (O75914 whole entry, looked up): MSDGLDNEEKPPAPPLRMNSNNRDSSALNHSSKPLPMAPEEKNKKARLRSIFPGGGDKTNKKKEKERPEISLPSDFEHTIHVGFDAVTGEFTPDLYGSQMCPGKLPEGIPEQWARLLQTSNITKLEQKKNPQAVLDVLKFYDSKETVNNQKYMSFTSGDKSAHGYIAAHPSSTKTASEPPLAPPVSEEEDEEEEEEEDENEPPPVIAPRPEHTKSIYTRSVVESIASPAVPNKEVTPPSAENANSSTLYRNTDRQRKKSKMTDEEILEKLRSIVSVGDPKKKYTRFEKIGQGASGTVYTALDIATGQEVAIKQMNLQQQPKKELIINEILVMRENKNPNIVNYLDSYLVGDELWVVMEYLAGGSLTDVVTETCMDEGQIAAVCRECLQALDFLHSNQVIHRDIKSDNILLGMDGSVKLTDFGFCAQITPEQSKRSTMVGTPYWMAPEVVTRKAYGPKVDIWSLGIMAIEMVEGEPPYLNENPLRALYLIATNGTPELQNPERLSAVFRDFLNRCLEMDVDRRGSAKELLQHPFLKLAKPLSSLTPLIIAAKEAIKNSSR
Chain of Receptor tyrosine-protein kinase erbB-3 (Homo sapiens) (P21860 whole entry): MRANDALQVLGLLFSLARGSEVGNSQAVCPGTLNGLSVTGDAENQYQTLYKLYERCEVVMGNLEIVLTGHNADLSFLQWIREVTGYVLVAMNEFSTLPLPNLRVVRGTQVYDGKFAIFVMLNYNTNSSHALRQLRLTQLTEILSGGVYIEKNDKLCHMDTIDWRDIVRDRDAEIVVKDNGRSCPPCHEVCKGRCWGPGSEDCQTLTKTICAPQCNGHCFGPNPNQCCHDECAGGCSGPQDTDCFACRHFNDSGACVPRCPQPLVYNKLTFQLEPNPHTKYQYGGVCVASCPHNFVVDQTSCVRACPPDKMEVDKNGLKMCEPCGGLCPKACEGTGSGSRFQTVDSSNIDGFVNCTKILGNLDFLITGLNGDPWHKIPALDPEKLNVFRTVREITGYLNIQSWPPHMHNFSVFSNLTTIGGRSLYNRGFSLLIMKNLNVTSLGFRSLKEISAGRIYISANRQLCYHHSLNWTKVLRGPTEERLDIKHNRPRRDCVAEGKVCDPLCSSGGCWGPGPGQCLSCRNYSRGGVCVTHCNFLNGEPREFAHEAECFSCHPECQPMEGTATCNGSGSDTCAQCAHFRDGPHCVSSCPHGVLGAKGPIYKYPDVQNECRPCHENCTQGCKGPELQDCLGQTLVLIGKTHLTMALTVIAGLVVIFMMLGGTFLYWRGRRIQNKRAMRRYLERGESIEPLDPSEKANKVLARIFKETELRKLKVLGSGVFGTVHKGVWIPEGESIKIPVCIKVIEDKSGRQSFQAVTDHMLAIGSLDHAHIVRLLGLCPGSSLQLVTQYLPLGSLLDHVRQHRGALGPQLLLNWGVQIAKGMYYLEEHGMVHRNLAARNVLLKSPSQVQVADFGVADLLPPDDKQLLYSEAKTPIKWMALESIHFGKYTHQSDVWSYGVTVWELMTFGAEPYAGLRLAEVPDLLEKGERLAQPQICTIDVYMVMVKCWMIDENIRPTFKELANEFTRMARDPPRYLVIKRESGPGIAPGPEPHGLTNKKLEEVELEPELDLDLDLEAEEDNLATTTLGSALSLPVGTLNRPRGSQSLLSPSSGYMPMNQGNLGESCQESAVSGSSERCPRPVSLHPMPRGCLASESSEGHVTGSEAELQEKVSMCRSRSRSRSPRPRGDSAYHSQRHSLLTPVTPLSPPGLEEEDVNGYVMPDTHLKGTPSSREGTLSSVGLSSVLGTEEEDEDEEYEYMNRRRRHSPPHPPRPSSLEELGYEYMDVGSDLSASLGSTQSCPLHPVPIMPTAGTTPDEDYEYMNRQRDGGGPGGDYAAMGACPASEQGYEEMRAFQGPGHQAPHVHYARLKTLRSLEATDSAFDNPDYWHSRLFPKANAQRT
Chain of Serine/threonine-protein kinase MRCK gamma (Homo sapiens) (Q6DT37 whole entry): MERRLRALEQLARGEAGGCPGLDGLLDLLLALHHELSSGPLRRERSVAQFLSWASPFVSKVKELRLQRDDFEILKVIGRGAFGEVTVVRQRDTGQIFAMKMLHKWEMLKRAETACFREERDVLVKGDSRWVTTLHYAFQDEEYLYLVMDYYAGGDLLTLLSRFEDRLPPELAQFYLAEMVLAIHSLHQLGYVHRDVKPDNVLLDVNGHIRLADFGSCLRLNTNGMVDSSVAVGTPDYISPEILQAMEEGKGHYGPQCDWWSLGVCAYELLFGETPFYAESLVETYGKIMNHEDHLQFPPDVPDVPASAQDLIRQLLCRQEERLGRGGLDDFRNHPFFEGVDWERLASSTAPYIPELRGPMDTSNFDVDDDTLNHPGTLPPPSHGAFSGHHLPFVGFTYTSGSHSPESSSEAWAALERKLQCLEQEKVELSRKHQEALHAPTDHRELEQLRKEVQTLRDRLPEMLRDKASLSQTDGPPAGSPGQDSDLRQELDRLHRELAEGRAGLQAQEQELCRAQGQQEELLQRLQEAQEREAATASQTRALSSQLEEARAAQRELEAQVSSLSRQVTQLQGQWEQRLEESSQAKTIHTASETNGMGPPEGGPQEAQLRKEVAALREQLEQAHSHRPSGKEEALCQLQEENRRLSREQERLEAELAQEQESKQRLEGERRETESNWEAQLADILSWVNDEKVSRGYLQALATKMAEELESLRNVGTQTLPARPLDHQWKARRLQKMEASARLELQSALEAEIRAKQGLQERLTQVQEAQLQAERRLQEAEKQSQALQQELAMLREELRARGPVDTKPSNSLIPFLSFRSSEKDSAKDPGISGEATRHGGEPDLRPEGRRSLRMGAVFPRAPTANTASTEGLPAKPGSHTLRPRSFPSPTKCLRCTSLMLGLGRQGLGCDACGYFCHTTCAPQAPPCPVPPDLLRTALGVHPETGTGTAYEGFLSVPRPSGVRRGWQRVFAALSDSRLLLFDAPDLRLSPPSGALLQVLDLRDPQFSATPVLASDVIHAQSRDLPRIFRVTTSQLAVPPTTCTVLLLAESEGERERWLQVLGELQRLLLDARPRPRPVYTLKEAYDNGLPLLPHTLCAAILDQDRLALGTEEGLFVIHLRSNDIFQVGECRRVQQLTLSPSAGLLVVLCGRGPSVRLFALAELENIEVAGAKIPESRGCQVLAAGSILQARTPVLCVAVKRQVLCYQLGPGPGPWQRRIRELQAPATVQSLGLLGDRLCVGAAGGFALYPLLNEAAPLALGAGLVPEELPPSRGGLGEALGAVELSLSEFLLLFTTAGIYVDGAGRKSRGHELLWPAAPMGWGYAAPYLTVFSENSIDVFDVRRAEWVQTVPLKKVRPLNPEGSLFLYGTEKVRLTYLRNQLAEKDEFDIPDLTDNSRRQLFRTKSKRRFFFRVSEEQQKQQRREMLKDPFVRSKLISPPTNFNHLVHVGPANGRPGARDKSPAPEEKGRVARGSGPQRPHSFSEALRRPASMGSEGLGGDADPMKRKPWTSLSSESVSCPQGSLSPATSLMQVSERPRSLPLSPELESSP
Chain of SRSF protein kinase 2 (Homo sapiens) (P78362 whole entry, looked up): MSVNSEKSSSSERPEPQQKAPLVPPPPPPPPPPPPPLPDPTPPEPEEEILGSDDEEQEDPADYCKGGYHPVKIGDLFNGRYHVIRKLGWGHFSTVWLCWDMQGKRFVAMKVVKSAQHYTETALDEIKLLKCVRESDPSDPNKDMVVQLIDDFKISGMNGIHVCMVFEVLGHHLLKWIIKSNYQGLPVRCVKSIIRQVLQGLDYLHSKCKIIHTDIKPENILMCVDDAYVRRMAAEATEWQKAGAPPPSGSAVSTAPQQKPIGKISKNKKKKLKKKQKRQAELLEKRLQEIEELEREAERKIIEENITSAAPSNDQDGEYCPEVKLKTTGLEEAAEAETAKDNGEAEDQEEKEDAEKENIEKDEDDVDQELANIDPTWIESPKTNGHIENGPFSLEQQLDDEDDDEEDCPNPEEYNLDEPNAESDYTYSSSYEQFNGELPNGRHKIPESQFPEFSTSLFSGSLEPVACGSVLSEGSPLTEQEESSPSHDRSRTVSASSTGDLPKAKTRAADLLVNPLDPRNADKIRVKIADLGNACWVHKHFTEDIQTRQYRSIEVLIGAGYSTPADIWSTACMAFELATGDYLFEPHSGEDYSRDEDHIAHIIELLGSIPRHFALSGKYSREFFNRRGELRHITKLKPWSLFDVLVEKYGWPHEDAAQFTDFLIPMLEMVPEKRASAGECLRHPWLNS
Chain of Mitogen-activated protein kinase 11 (Homo sapiens) (Q15759 whole entry): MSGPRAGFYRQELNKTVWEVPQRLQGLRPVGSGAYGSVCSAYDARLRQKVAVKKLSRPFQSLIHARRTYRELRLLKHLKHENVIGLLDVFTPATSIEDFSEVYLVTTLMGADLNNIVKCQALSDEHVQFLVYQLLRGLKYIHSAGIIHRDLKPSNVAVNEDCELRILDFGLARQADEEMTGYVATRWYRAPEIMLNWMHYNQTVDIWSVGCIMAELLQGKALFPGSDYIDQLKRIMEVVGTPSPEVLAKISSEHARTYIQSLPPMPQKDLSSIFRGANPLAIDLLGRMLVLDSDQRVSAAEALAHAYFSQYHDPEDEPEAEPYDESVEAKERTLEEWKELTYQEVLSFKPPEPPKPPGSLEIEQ
Chain of Serine/threonine-protein kinase 16 (O75716 whole entry): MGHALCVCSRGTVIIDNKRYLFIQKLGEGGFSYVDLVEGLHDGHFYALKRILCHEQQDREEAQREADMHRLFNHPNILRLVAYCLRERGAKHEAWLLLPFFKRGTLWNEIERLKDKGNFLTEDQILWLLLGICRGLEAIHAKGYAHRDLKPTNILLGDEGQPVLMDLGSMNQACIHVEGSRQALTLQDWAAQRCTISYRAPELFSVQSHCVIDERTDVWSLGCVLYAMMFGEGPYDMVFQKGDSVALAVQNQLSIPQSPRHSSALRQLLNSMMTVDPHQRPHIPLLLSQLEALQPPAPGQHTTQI

Turning to `Cc1cc([C@@H](C)Nc2ccccc2C(=O)O)c2nc(N3CCOCC3)cc(=O)n2c1` [AZD-6482], in experiment [1], the % of control is 93%. `CC(C)(O)[C@H](F)CN1Cc2cc(NC(=O)c3cnn4cccnc34)c(N3CCOCC3)cc2C1=O` yielded a dTM in [2] of 0.1 K. In the case of `CCc1cc(Nc2nccc(-c3c(-c4ccc(OC)c(C(=O)Nc5c(F)cccc5F)c4)nc4ccccn34)n2)c(OC)cc1N1CCC(N2CCN(S(C)(=O)=O)CC2)CC1`, in experiment [3], the % of inhibition turned out to be 69%.

With `Nc1cnc(N2CCc3cc(S(=O)(=O)Nc4c(F)cc(Cl)cc4F)cc(N4CCCC4=O)c32)nc1` [TP-020n], the % of control in experiment [4] was found to be 95%. `O=C(NOC[C@H](O)CO)c1ccc(F)c(F)c1Nc1ccc(I)cc1F`: the % of control in experiment [5] and in [6] was 100% each time. Take `Cn1cc(-n2cnc3c(NCc4nc5cc(Cl)c(Cl)cc5[nH]4)nc(N4CCOCC4)nc32)cn1`: in experiment [7], the % of control stood at 2.69%. Further, the % of inhibition in experiment [8] is -15.9%; in experiment [9], -62.3%.

Compound `CNC(=O)Nc1ccc(-c2nc(N3CC4CCC(C3)O4)c3cnn(C4CCC5(CC4)OCCO5)c3n2)cc1` yielded a % of control in [10] of 99%.

`CC[C@@H]1[C@H](F)C(=O)N[C@@H]1COc1nccc2cc(C(N)=O)c(OC)cc12` [ZIMLOVISERTIB]: the % of inhibition in experiment [11] was 13.8%. Take `COc1cc(N(C)c2ccnc3ccc(C(F)(F)F)cc23)cc(OC)c1OC`: the results for the % binding in [12] and in experiment [13] were 90% and 100%, respectively. `COCC(=O)NC/C=C/c1ccc2ncnc(Nc3ccc(Oc4ccc(C)nc4)c(C)c3)c2c1` [CP-724714] had a % of control in experiment [14] of 92%. In the case of `O[C@H]1CC[C@H](Nc2ncc3nc(Nc4c(F)cc(F)cc4F)n([C@H]4CCOC4)c3n2)CC1`, in [15], the % of control amounted to 78%.
